The values that follow come from ChEMBL document CHEMBL4052806, “Chemical constituents from the rare mushroom Calvatia nipponica inhibit the promotion of angiogenesis in HUVECs” (Bioorg Med Chem Lett, 2017).

Series [1] has as its system HUVEC. Briefly: Cytotoxicity against HUVEC assessed as reduction in cell viability at 100 ug/ml after 24 hrs by MTT assay relative to control. It is filed as cell-based. Conditions: human. Background: Tetrazolium assays rely on reduction of a dye to a coloured formazan, in cell work by metabolically active cells.
The subject of series [2] is HUVEC. Briefly: Antiangiogenic activity in HUVEC assessed as inhibition of tube formation on matrigel at 12.5 ug/ml after 24 hrs by Mayer's hematoxylin staining based light microscopy relative to control. Conditions: Homo sapiens. The series is classed as functional.
Series [3] deals with HUVEC. Briefly: Cytotoxicity against HUVEC assessed as reduction in cell viability after 24 hrs by MTT assay. The following applies: human. It is filed as cell-based.
For series [4], the system named is HUVEC. Nature of the series: Cytotoxicity against HUVEC assessed as reduction in cell viability up to 12.5 ug/ml after 24 hrs by MTT assay. The series is classed as cell-based. The following applies: human.
The subject of series [5] is HUVEC. Briefly: Antiangiogenic activity in HUVEC assessed as inhibition of tube formation on matrigel after 24 hrs by Mayer's hematoxylin staining based light microscopy. Conditions: Homo sapiens. It is filed as functional, cell-based.
Series [6] has as its target T1, MAP kinase p38 (Homo sapiens) (UniProt O15264+Q15759+Q16539+P53778). Nature of the series: Inhibition of p38 phosphorylation in HUVEC at 12.5 ug/ml after 24 hrs by Western blot analysis relative to control. On the technique in general: A western blot detects proteins with antibodies after separation by electrophoresis.
The subject of series [7] is HUVEC. Briefly: Down regulation of VEGF expression in HUVEC at 6.25 ug/ml after 24 hrs by Western blot analysis relative to control. The series is classed as functional, Homo sapiens.
The species entered for series [8] is Homo sapiens. Nature of the series: Inhibition of ERK phosphorylation in HUVEC at 6.25 ug/ml after 24 hrs by Western blot analysis relative to control.
Series [9] concerns HUVEC. Nature of the series: Down regulation of VEGF expression in HUVEC at 12.5 ug/ml after 24 hrs by Western blot analysis relative to control. It is filed as functional, Homo sapiens.
The species named for series [10] is Homo sapiens. Briefly: Inhibition of ERK phosphorylation in HUVEC at 12.5 ug/ml after 24 hrs by Western blot analysis relative to control.
Series [11] deals with T1, MAP kinase p38 (Homo sapiens). Nature of the series: Inhibition of p38 phosphorylation in HUVEC at 6.25 ug/ml after 24 hrs by Western blot analysis relative to control.

Each structure is given as a SMILES string. Activity calls are given as the source filed them. The calls are words filed in the database; no cut-off is given here.

Regarding `CC(=O)Nc1ccc(O)cc1` [ACETAMINOPHEN], the Activity in [1] is 25.93%; in series [3], “Dose-dependent effect”; in [4] it was “Non-Toxic”. Further, the inhibition (usually the share of the control response that was lost under treatment) at 12.5 µg/mL in series [2] came to 10.5%.

`CN(C)c1ccccc1C(=O)O`: the Activity is given as 25.82% in [1], “Dose-dependent effect” in [3] and “Non-Toxic” in series [4]. In addition, the inhibition result in series [5] is “inactive”.

On to `O=C1OCc2cc(O)cc(O)c21`, for which the inhibition entry in [5] was “inactive”.

For the compound `NC(=O)c1cccnc1` [NIACINAMIDE], the Activity in [1] was 6.07%; in series [3] it was “Dose-dependent effect”; in [4], “Non-Toxic”. In series [2], the inhibition at 12.5 µg/mL was found to be 11.3%.

Take `O=C1NCc2c(O)cc(O)cc21`: the fold change (FC) is 0.71 in [6]; 0.9 in [7]; 1.05 in [8]; 0.72 in series [9]; 0.9 in series [10]; 0.87 in [11]. Also, the Activity is given as 23.13% in series [1], “Dose-dependent effect” in [3] and “Non-Toxic” in [4]. Besides, in series [2], the inhibition at 12.5 µg/mL stood at 32.6%.

Turning to `OCc1cc(O)cc(O)c1`, the Activity in series [1] is given as 25.15%; in series [3], “Dose-dependent effect”; in [4], “Non-Toxic”. Moreover, the inhibition result in series [5] was “inactive”.

As for `CNc1ccccc1C(=O)O`, the Activity in series [1] is listed as 24.55%; in series [3], “Dose-dependent effect”; in series [4], “Non-Toxic”. For the same compound, the inhibition entry in [5] is “inactive”.
